Test: Biliary secretion, bile flow and metabolism in bile-fistula rat after duodenal (id) and femoral (iv) infusion
Assay type: in vivo
Settings: for choleretic effect (bile flow): bile fistula rat
Procedure: To evaluate the mode and efficiency of the intestinal absorption the analogues were administered both intravenously (femoral infusion) and orally (duodenal infusion) at the same dose and their biliary secretion rate was evaluated in bile fistula rat model. The differences in the area under the curve of the biliary secretion vs time between iv and id administration account of its intestinal absorption and give information about its biovailability.
The bile fistula rat model was developed at the University of Bologna Lab facilities. The compound 3A was administered at a dose of 1 μmol/kg/min (1 hour infusion) to a rat group via duodenal infusion (id). Rat have a bile fistula to collect bile samples at different times before and during the infusion. For duodenal infusion experiment 3 rats (250±10 g) were treated. Bile samples were collected every 15 minutes for four hours. In addition, 3 control rats were treated with saline solution under the same conditions for times and sampling (duodenal control rats).
Duodenal infusion starts after 30 min baseline bile collection and continues for one hour.
For femoral infusion experiment, 3 rats were treated. […] Femoral infusion starts after 75 minutes of steady-state and continues for 60 min. Bile samples were collected every 15 minutes for four hours. In addition, 3 rats were treated with saline solution under the same conditions for times and sampling (femoral control rats).
Rat bile samples were brought to room temperature, briefly stirred, and diluted 1:100 v/v (bile samples from duodenal orinfusion) and 1:100 or 1:200 v/v (bile samples from femoral infusion) with 15 mM ammonium acetate buffer (pH=5.0):acetonitrile=70:30 (v/v). Final solution was transferred in autosampler vials, and 10 μL was injected into the chromatographic column.
Bile rat samples were analyzed by liquid chromatography-tandem mass spectrometry (HPLC-MS/MS) using electrospray (ESI) source in negative ionization mode. For liquid chromatography a Waters Alliance 2695 separation module coupled with autosampler was used. Autosampler was maintained at 7° C. Separation was performed on a Synergi Hydro-RP C18 column (150×2.0 mm i.d., 4 μm particle size), protected by a SecurityGuard ODS 4×2.0 mm i.d. precolumn, both supplied from Phenomenex. […]. Nitrogen was used as nebulizer gas at 90 L/h flow rate and as desolvation gas at 930 L/h. Ion source block and desolvation temperatures were set respectively to 80° C. and 180° C. Capillary voltage was 3.0 kV. MassLynx software version 4.0 was used for data acquisition and processing. In addition, using mass spectrometry both in single MS or tandem MS/MS configuration experiments were performed to identify metabolites.
A 5-point calibration curve was daily prepared and injected in duplicate. Calibration samples were obtained in the 0.1 to 25 μmol/L concentration range prepared in mobile phase. Linear calibration curve parameters were obtained from the plot of the analyte peak area versus analyte concentration using a least squares regression analysis (weight=1/x^2). Correlation coefficients were ≧0.989.
The data refer to the secretion rate of the analogues recovered in bile as such after duodenal and femoral infusion at a dose of 1 umol/Kg/min. Major and minor metabolites are reported later.
For a preliminary screening the search of the possible metabolites has been performed on the basis of the expected compounds according to previous experiments and data and to the structure and physicochemical properties of the studied analogues.

[1] = rat, duodenal infusion 1 umol/Kg/min 1 h, time 120 min
[2] = rat, duodenal infusion 1 umol/Kg/min 1 h, time 150 min
[3] = rat, duodenal infusion 1 umol/Kg/min 1 h, time 180 min
[4] = rat, duodenal infusion 1 umol/Kg/min 1 h, time 210 min
[5] = rat, duodenal infusion 1 umol/Kg/min 1 h, time 240 min
[6] = rat, duodenal infusion 1 umol/Kg/min 1 h, time 270 min
[7] = rat, duodenal infusion 1 umol/Kg/min 1 h, time 300 min
[8] = rat, femoral infusion 1 umol/Kg/min 1 h, time 90 min
[9] = rat, femoral infusion 1 umol/Kg/min 1 h, time 120 min
[10] = rat, femoral infusion 1 umol/Kg/min 1 h, time 150 min
[11] = rat, femoral infusion 1 umol/Kg/min 1 h, time 180 min
[12] = rat, femoral infusion 1 umol/Kg/min 1 h, time 210 min
[13] = rat, femoral infusion 1 umol/Kg/min 1 h, time 240 min

For `CC[C@H]1[C@@H](O)[C@@H]2[C@H](C[C@H](O)[C@]3(C)[C@@H]([C@H](C)CCCS(=O)(=O)[O-])CC[C@@H]23)[C@@]2(C)CC[C@@H](O)C[C@@H]12.[Na+]` [Compound 3A, 3α,7α,12α-trihydroxy-6α-ethyl-5β-cholan-24-sulfonate Sodium Salt], the “choleretic effect (bile flow)” value (duodenal infusion (id) 1 μmol/kg/min, 1 hour) was “moderate choleretic effect”, the “choleretic effect (bile flow)” value (femoral infusion (iv), 60 min) was “moderate choleretic effect” and the “hepatic and intestinal metabolism” value (bile-fistula rat, iv and id) was “not metabolized by the liver or by the intestine”. The intestinal absorption (rat, after id administration, recovery in bile much lower than after iv) was “poorly absorbed by the intestine”, the recovery in bile (rat, after iv administration) was “almost completely recovered in bile” and the Conc. in bile [1] was 370 µM. The “Secretion (biliary)” value [1] was 0.026 µmol/kg/min, the Conc. in bile [2] was 900 µM and the “Secretion (biliary)” value [2] was 0.079 µmol/kg/min. For the same molecule, the Conc. in bile [3] was 1300 µM, the “Secretion (biliary)” value [3] was 0.101 µmol/kg/min and the Conc. in bile [4] was 950 µM. For the same molecule, the “Secretion (biliary)” value [4] was 0.061 µmol/kg/min, the Conc. in bile [5] was 700 µM and the “Secretion (biliary)” value [5] was 0.043 µmol/kg/min. For the same molecule, the Conc. in bile [6] was 580 µM, the “Secretion (biliary)” value [6] was 0.039 µmol/kg/min and the Conc. in bile [7] was 510 µM. For the same molecule, the “Secretion (biliary)” value [7] was 0.029 µmol/kg/min, the Conc. in bile [8] was 2600 µM and the “Secretion (biliary)” value [8] was 0.105 µmol/kg/min. For the same molecule, the Conc. in bile [9] was 7300 µM, the “Secretion (biliary)” value [9] was 0.588 µmol/kg/min and the Conc. in bile [10] was 7500 µM. For the same molecule, the “Secretion (biliary)” value [10] was 0.463 µmol/kg/min, the Conc. in bile [11] was 6200 µM and the “Secretion (biliary)” value [11] was 0.363 µmol/kg/min. For the same molecule, the Conc. in bile [12] was 3400 µM, the “Secretion (biliary)” value [12] was 0.247 µmol/kg/min and the Conc. in bile [13] was 1000 µM. The “Secretion (biliary)” value [13] was 0.045 µmol/kg/min.

Source: patent US8796249B2, “TGR5 modulators and methods of use thereof” (Intercept Pharmaceuticals, Inc., priority 2008, dated 2014)
